Test results reported in publication PMC7351617 (Journal of neurochemistry, 2020).

Test system: rat adrenal chromaffin cells (native α3β4* / α3β2β4 nAChRs)

## CC[C@H](C)[C@@H]1NC(=O)[C@@H]2CCCN2C(=O)[C@H](CO)NC(=O)[C@H](CCSC)NC(=O)[C@H](C)NC(=O)[C@H](CO)NC(=O)[C@@H]2CSSC[C@H](NC(=O)CN)C(=O)N[C@@H](CSSC[C@@H](C(N)=O)NC1=O)C(=O)N[C@@H](CO)C(=O)N[C@@H](Cc1c[nH]cn1)C(=O)N1CCC[C@H]1C(=O)N[C@@H](C(C)C)C(=O)N2 [TxID]
  Hill slope: −1.1
  inhibition of the ACh-evoked currents: ~ 97%
36 h
  IC50: 7 nM
SD
  ACh-evoked current amplitude in the presence of TxID: −50 ± 24 pA
  ACh-evoked current amplitude in the presence of TxID alone: −45 ± 26 pA
  ACh-evoked currents in the presence of TxID, % of controls: 3 ± 1%
